# Data taken from patent US12103945B2, “Crystalline form of vascular leakage blocker compound” (Curacle Co., Ltd., priority 2020, dated 2024).
# Tests used:
# Assay type in all cases: physicochemical
# [1] = Solubility assay by visual observation and manual dilution; conditions: thermodynamic from solid, room temperature
# Protocol: Solubility assay was performed by visual observation and manual dilution at room temperature. […] The total amount of the solvent was recorded to calculate the solubility for each solvent.
# [2] = Crystalline form change on storage at room temperature (XRPD)
# Protocol: The X-ray powder diffraction (XRPD) pattern was obtaine d on a Shimadzu XRD-6000 instrument.
# • Tube: Cu: K-α (λ=1.54056 Å) • Generator: Voltage: 40 kV; Current: 30 mA • Scan Scope: 3˜50 deg. Scanning rate: 5 deg./min
# […] Particularly, XRPD was performed according to the method described in <Experimental Methods> 1. X-ray Powder Diffractometer (XRPD).
# [3] = Thermal gravimetric analysis (TGA); conditions: heating from room temperature to 120° C.
# Protocol: Samples of compounds (4˜6 mg) were weighed into the pan, and heated under nitrogen purge.
# • Ramp rate: 20° C./min over the range 30° C.˜300° C. • Nitrogen purge: 50 mL/min • Samples: About 5 mg
# [4] = Dynamic vapor sorption (DVS); conditions: for Mass change (%) Desorption / Mass change (%) Sorption / Mass change (%) Hysteresis: 25° C.
# Protocol: Around 10 mg of samples were used to test its moisture sorption/desorption profiles.
# • Temperature: 25° C. • Equilibrium: dm/dt: 0.01%/min • Relative Humidity (RH) measurement stepscope: 0%˜95%˜0% RH • Relative Humidity (RH) measurement step: 5% RH • Samples: 10-20 mg • Hygroscopicity Classification • Hygroscopicity: Water Sorption Criterion • Deliquescent: Sufficient water is absorbed to form a liquid. • Very hygroscopic: W %≥15% • Hygroscopic: W %≥2% • Slightly hygroscopic: W %≥0.2% • Non-hygroscopic: W %<0.2% • 25±1° C., 80±2% RH
# [5] = Accelerated stability test (HPLC purity); conditions: for Purity (%): 40 ± 2° C. & 75 ± 5% RH
# Protocol: • Column: Agilent Zorbax Rx C8, 4.6 mm×250 mm, 5.0 μm • Moving phase: 85% acetonitrile • Flow rate: 1.0 mL/rain • Wavelength: 205 nm • Injection volume: 10 λL • Column temperature: 30° C. • Diluent: 100% acetonitrile
# In order to confirm the stability of the novel crystalline form according to the present invention, the stability of the crystalline form I prepared in Example 1 was evaluated using a liquid chromatography method under the analysis conditions of <Experimental Methods>6. High performance liquid chromatography (HFLC). The results of the accelerated stability test from 1 month to 6 months in the conditions of 40±2° C. & 75±5 RH are shown in Table 15 below.
# [6] = stored at room temperature for 2 months
# [7] = stored at room temperature for 3 months
compound,measurement,setting,value
"COC(=O)CCC/C=C(\C)[C@H]1CC[C@H]2[C@@H]3CC=C4C[C@@H](OC5C=C[C@H](OC(C)=O)[C@@H](COC(C)=O)O5)CC[C@]4(C)[C@H]3CC[C@]12C (stereo partly drawn) [compound 1, (E)-methyl 6-((3S,8S,9S,10R,13S,14S,17R)-3-(((5S,6R)-5-acetoxy-6-(acetoxymethyl)-5,6-dihydro-2H-pyran-2-yl)oxy)-10,13-dimethyl-2,3,4,7,8,9,10,11,12,13,14,15,16,17-tetradecahydro-1H-cyclopenta[a]phenanthrene-17-yl)hept-5-enoate]",solubility,"[1]; organic solvent or mixture, solvent 1,4-dioxane",> 100 mg/mL
same,solubility,"[1]; organic solvent or mixture, solvent 1-butanol",26 to 52 mg/mL
same,solubility,"[1]; organic solvent or mixture, solvent 2-methyl-tetrahydrofuran",> 93.2 mg/mL
same,solubility,"[1]; organic solvent or mixture, solvent Acetone",> 100 mg/mL
same,solubility,"[1]; organic solvent or mixture, solvent Acetonitrile (ACN)",> 82.6 mg/mL
same,solubility,"[1]; organic solvent or mixture, solvent Anisole",> 100 mg/mL
same,solubility,"[1]; organic solvent or mixture, solvent Butyl acetate",> 88.6 mg/mL
same,solubility,"[1]; organic solvent or mixture, solvent Chloroform",> 100 mg/mL
same,solubility,"[1]; organic solvent or mixture, solvent Cyclohexane",26 to 40 mg/mL
same,solubility,"[1]; organic solvent or mixture, solvent Dichloromethane (DCM)",> 100 mg/mL
same,solubility,"[1]; organic solvent or mixture, solvent Dimethyl sulfoxide (DMSO)",30 to 45 mg/mL
same,solubility,"[1]; organic solvent or mixture, solvent Ethanol (EtOH)",5.1 to 6.4 mg/mL
same,solubility,"[1]; organic solvent or mixture, solvent Ethyl acetate (EtOAc)",> 100 mg/mL
same,solubility,"[1]; organic solvent or mixture, solvent Isopropanol (IPA)",5.1 to 6.8 mg/mL
same,solubility,"[1]; organic solvent or mixture, solvent Isopropyl acetate (iPrOAc)",> 100 mg/mL
same,solubility,"[1]; organic solvent or mixture, solvent Isopropyl ether",65.2 to 130 mg/mL
same,solubility,"[1]; organic solvent or mixture, solvent Methanol (MeOH)",6.9 to 8.2 mg/mL
same,solubility,"[1]; organic solvent or mixture, solvent Methyl ethyl ketone (MEK)",> 100 mg/mL
same,solubility,"[1]; organic solvent or mixture, solvent Methyl tert-butyl ether (MTBE)",> 85.4 mg/mL
same,solubility,"[1]; organic solvent or mixture, solvent N,N-dimethylformamide (DMF)",> 100 mg/mL
same,solubility,"[1]; organic solvent or mixture, solvent Petroleum ether",11.5 to 15.3 mg/mL
same,solubility,"[1]; organic solvent or mixture, solvent Tetrahydrofuran (THF)",> 76 mg/mL
same,solubility,"[1]; organic solvent or mixture, solvent Toluene",> 83 mg/mL
same,solubility,"[1]; organic solvent or mixture, solvent n-heptane",6.3 to 8.8 mg/mL
same,solubility,"[1]; organic solvent or mixture, solvent n-propanol",26.1 to 52.1 mg/mL
same,solubility,[1]; solvent Water (H2O),< 1 mg/mL
"COC(=O)CCC/C=C(\C)[C@H]1CC[C@H]2[C@@H]3CC=C4C[C@@H](O[C@@H]5C=C[C@H](OC(C)=O)[C@@H](COC(C)=O)O5)CC[C@]4(C)[C@H]3CC[C@]12C [crystalline form V, (E)-methyl 6-((3S,8S,9S,10R,13S,14S,17R)-3-(((2S,5S,6R)-5-acetoxy-6-(acetoxymethyl)-5,6-dihydro-2H-pyran-2-yl)oxy)-10,13-dimethyl-2,3,4,7,8,9,10,11,12,13,14,15,16,17-tetradecahydro-1H-cyclopenta[a]phenanthrene-17-yl)hept-5-enoate]",Change of crystalline form (XRPD pattern),[2]; [6],a novel crystalline form having the XRPD pattern different from that of the crystalline form V was confirmed
same,Change of crystalline form (XRPD pattern),[2]; [7],a novel crystalline form having the XRPD pattern different from that of the crystalline form V was confirmed
"COC(=O)CCC/C=C(\C)[C@H]1CC[C@H]2[C@@H]3CC=C4C[C@@H](O[C@@H]5C=C[C@H](OC(C)=O)[C@@H](COC(C)=O)O5)CC[C@]4(C)[C@H]3CC[C@]12C [crystalline form I, (E)-methyl 6-((3S,8S,9S,10R,13S,14S,17R)-3-(((2S,5S,6R)-5-acetoxy-6-(acetoxymethyl)-5,6-dihydro-2H-pyran-2-yl)oxy)-10,13-dimethyl-2,3,4,7,8,9,10,11,12,13,14,15,16,17-tetradecahydro-1H-cyclopenta[a]phenanthrene-17-yl)hept-5-enoate]",mass loss (TGA),[3],0.078%
same,Mass change (%) Desorption,[4]; Target RH 0.0%,−0.1124%
same,Mass change (%) Sorption,[4]; Target RH 0.0%,0.0000%
same,Mass change (%) Desorption,[4]; Target RH 5.0%,−0.1004%
same,Mass change (%) Hysteresis,[4]; Target RH 5.0%,−0.1074%
same,Mass change (%) Sorption,[4]; Target RH 5.0%,0.0070%
same,Mass change (%) Desorption,[4]; Target RH 10.0%,−0.0904%
same,Mass change (%) Hysteresis,[4]; Target RH 10.0%,−0.1034%
same,Mass change (%) Sorption,[4]; Target RH 10.0%,0.0131%
same,Mass change (%) Desorption,[4]; Target RH 15.0%,−0.0773%
same,Mass change (%) Hysteresis,[4]; Target RH 15.0%,−0.0964%
same,Mass change (%) Sorption,[4]; Target RH 15.0%,0.0191%
same,Mass change (%) Desorption,[4]; Target RH 20.0%,−0.0673%
same,Mass change (%) Hysteresis,[4]; Target RH 20.0%,−0.0906%
same,Mass change (%) Sorption,[4]; Target RH 20.0%,0.0231%
same,Mass change (%) Desorption,[4]; Target RH 25.0%,−0.0492%
same,Mass change (%) Hysteresis,[4]; Target RH 25.0%,−0.0803%
same,Mass change (%) Sorption,[4]; Target RH 25.0%,0.0311%
same,Mass change (%) Desorption,[4]; Target RH 30.0%,−0.0402%
same,Mass change (%) Hysteresis,[4]; Target RH 30.0%,−0.0723%
same,Mass change (%) Sorption,[4]; Target RH 30.0%,0.0321%
same,Mass change (%) Desorption,[4]; Target RH 35.0%,−0.0261%
same,Mass change (%) Hysteresis,[4]; Target RH 35.0%,−0.0592%
same,Mass change (%) Sorption,[4]; Target RH 35.0%,0.0331%
same,Mass change (%) Desorption,[4]; Target RH 40.0%,−0.0131%
same,Mass change (%) Hysteresis,[4]; Target RH 40.0%,−0.0582%
same,Mass change (%) Sorption,[4]; Target RH 40.0%,0.0452%
same,Mass change (%) Desorption,[4]; Target RH 45.0%,0.0000%
same,Mass change (%) Hysteresis,[4]; Target RH 45.0%,−0.0512%
same,Mass change (%) Sorption,[4]; Target RH 45.0%,0.0512%
same,Mass change (%) Desorption,[4]; Target RH 50.0%,0.0141%
same,Mass change (%) Hysteresis,[4]; Target RH 50.0%,−0.0462%
same,Mass change (%) Sorption,[4]; Target RH 50.0%,0.0602%
same,Mass change (%) Desorption,[4]; Target RH 55.0%,0.0261%
same,Mass change (%) Hysteresis,[4]; Target RH 55.0%,−0.0381%
same,Mass change (%) Sorption,[4]; Target RH 55.0%,0.0642%
same,Mass change (%) Desorption,[4]; Target RH 60.0%,0.0392%
same,Mass change (%) Hysteresis,[4]; Target RH 60.0%,−0.0351%
same,Mass change (%) Sorption,[4]; Target RH 60.0%,0.0743%
same,Mass change (%) Desorption,[4]; Target RH 65.0%,0.0522%
same,Mass change (%) Hysteresis,[4]; Target RH 65.0%,−0.0291%
same,Mass change (%) Sorption,[4]; Target RH 65.0%,0.0813%
same,Mass change (%) Desorption,[4]; Target RH 70.0%,0.0663%
same,Mass change (%) Hysteresis,[4]; Target RH 70.0%,−0.0231%
same,Mass change (%) Sorption,[4]; Target RH 70.0%,0.0893%
same,Mass change (%) Desorption,[4]; Target RH 75.0%,0.0823%
same,Mass change (%) Hysteresis,[4]; Target RH 75.0%,−0.0191%
same,Mass change (%) Sorption,[4]; Target RH 75.0%,0.1014%
same,Mass change (%) Desorption,[4]; Target RH 80.0%,0.0964%
same,Mass change (%) Hysteresis,[4]; Target RH 80.0%,−0.0131%
same,Mass change (%) Sorption,[4]; Target RH 80.0%,0.1094%
same,Mass change (%) Desorption,[4]; Target RH 85.0%,0.1114%
same,Mass change (%) Hysteresis,[4]; Target RH 85.0%,−0.0080%
same,Mass change (%) Sorption,[4]; Target RH 85.0%,0.1195%
same,Mass change (%) Desorption,[4]; Target RH 90.0%,0.1325%
same,Mass change (%) Hysteresis,[4]; Target RH 90.0%,−0.0010%
same,Mass change (%) Sorption,[4]; Target RH 90.0%,0.1335%
same,Mass change (%) Desorption,[4]; Target RH 95.0%,0.1436%
same,Mass change (%) Sorption,[4]; Target RH 95.0%,0.1436%
same,Hygroscopicity classification,"[4]; 25±1° C., 80±2% RH",non-hygroscopic
same,water sorption,[4]; at 80% RH,0.11%
same,Purity (%),[5]; storage time 1 month,99.8%
same,Purity (%),[5]; storage time 3 months,99.8%
same,Purity (%),[5]; storage time 6 months,99.8%
same,Purity (%),[5]; storage time Initial,99.8%
same,Accelerated stability (result in words),"[5]; 40±2° C. & 75±5 RH, 1 month to 6 months",stably maintained for up to 6 months without affecting the purity
"COC(=O)CCC/C=C(\C)[C@H]1CC[C@H]2[C@@H]3CC=C4C[C@@H](O[C@@H]5C=C[C@H](OC(C)=O)[C@@H](COC(C)=O)O5)CC[C@]4(C)[C@H]3CC[C@]12C [crystalline form IV, (E)-methyl 6-((3S,8S,9S,10R,13S,14S,17R)-3-(((2S,5S,6R)-5-acetoxy-6-(acetoxymethyl)-5,6-dihydro-2H-pyran-2-yl)oxy)-10,13-dimethyl-2,3,4,7,8,9,10,11,12,13,14,15,16,17-tetradecahydro-1H-cyclopenta[a]phenanthrene-17-yl)hept-5-enoate]",Change of crystalline form (XRPD pattern),[2]; [6],a novel crystalline form having the XRPD pattern different from that of the crystalline form IV was confirmed
same,Change of crystalline form (XRPD pattern),[2]; [7],a novel crystalline form having the XRPD pattern different from that of the crystalline form IV was confirmed
